As usually defined, the IC50 is the midpoint of a concentration-inhibition curve. One may read the melting point as the temperature of the solid-liquid transition.

Series [1] addresses T1, hormone-sensitive lipase HSL (Rattus norvegicus, UniProt P15304).
T1 construct: Isolated rat fat cells are obtained from epididymal fatty tissue from untreated male rats; from tissue; host or cells: fat cells from epididymal fatty tissue of male Wistar rats
T1 sequence (P15304 301-1068 limits assumed): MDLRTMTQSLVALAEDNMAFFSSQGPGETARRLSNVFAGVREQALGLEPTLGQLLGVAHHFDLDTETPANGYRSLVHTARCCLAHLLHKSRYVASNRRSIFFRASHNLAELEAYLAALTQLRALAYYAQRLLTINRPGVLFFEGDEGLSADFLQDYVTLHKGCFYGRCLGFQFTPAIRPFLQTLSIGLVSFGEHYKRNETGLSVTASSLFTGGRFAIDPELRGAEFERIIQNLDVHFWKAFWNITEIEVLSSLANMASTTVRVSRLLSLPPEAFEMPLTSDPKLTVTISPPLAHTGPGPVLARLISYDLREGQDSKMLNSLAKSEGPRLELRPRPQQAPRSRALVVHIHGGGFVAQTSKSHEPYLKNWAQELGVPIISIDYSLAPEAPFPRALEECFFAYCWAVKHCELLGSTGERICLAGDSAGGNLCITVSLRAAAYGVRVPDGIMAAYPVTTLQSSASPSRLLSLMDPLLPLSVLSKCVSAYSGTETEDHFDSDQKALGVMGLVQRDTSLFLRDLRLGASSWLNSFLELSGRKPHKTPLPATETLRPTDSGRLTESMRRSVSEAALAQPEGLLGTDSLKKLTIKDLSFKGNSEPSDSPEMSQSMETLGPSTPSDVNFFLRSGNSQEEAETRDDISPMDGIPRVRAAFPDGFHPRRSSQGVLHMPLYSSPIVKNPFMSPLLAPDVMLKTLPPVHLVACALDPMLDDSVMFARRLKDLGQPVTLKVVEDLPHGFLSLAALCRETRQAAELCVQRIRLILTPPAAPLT
Put plainly: HSL enzyme test system ([3H]trioleoylglycerol hydrolysis). In kind it is biochemical. Particulars: partially purified HSL from rat fat cells; [3H]trioleoylglycerol substrate; 37° C., 30 min. From the text: The activity of the compounds of the formula 1 according to the invention was examined using the following enzyme test system:
Isolated rat fat cells are obtained from epididymal fatty tissue from untreated male rats (Wistar, 220-250 g) by collagenase treatment according to published processes (e.g. S. Nilsson et al., Anal. Biochem. 158, 1986, 399-407; G. Fredrikson et al., J. Biol. Chem. 256, 1981, 6311-6320; H. Tornquist et al., J. Biol. Chem. 251, 1976, 813-819). The fat cells from 10 rats are washed three times by flotation with 50 ml each of homogenization buffer ([…] tris/HCI, pH 7.4, 0.25 M sucrose, 1 mM EDTA, 1 mM DTT, 10 μg/ml of leupeptin, 10 μg/ml of antipain, 20 μg/ml of pepstatin) and finally taken up in 10 ml of homogenization buffer. The fat cells are homogenized in a Teflon-in-glass homogenizer (Braun-Melsungen) by 10 strokes at 1500 rpm and 15° C. The homogenizate is centrifuged (Sorvall SM24 tubes, 5000 rpm, 10 min, 4° C). The bottom layer between the overlying fatty layer and the pellet is removed and the centrifugation is repeated. The bottom layer resulting from this is centrifuged again (Sorvall SM24 tubes, 20,000 rpm, 45 min, 4° C). […] After incubation for 60 min at 4° C. (shake at intervals of 15 min), the batch is centrifuged (Sorvall SM24 tubes, 3000 rpm, 10 min, 4° C.). The supernatant is brought to pH 5.2 by addition of glacial acetic acid and incubated at 4° C. for 30 min. The precipitates are collected by centrifugation (Sorvall SS34, 12,000 rpm, 10 min, 4° C.) and suspended in 2.5 ml of 20 mM tris/HCl, pH 7.0, 1 mM EDTA, 65 mM NaCl, 13% sucrose, 1 mM DTT, 10 μg/ml of leupeptin/pepstatin/antipain. The suspension is dialyzed overnight at 4° C. against 25 mM tris/HCl, pH 7.4, 50% glycerol, 1 mM DTT, 10 μg/ml of leupeptin, pepstatin, antipain and then applied to a hydroxylapatite column (0.1 g per 1 ml of suspension, equilibrated with 10 mM potassium phosphate, pH 7.0, 30% glycerol, 1 mM DTT). The column is washed with four volumes of equilibration buffer at a flow rate of 20 to 30 ml/h. The HSL is eluted with a volume of equilibration buffer which contains 0.5 M potassium phosphate, then dialyzed (see above) and concentrated 5 to 10 times by ultrafiltration (Amicon Diaflo PM 10 filter) at 4° C. The partially purified HSL can be stored at −70° C. for 4 to 6 weeks.
For the preparation of the substrate, 25-50 μCi of [^3H]trioleoylglycerol (in toluene), 6.8 μMol of unlabeled trioleoylglycerol and 0.6 mg of phospholipids (phosphatidylcholine/phosphatidylinositol 3:1 w/v) are mixed, dried over N2 and then taken up in 2 ml of 0.1 M KPi (pH 7.0) by ultrasonic treatment (Branson 250, microtip, setting 1-2, 2×1 min at a 1 min interval). After addition of 1 ml KPi and fresh ultrasonic treatment (4×30 sec on ice at 30 sec intervals), 1 ml of 20% BSA (in KPi) is added (final concentration of trioleoylglycerol 1.7 mM). For the reaction, 100 μl of substrate solution are pipetted into 100 μl of HSL solution (HSL prepared as above, diluted in 20 mM KPi, pH 7.0, 1 mM EDTA, 1 mM DTT, 0.02% BSA, 20 μg/ml of pepstatin, 10 μg/ml of leupeptin) and incubated at 37° C. for 30 min. After addition of 3.25 ml of methanol/chloroform/heptane (10:9:7) and of 1.05 ml of 0.1 M K2CO3, 0.1 M boric acid (pH 10.5), the batch is well mixed and finally centrifuged (800×g, 20 min). After phase separation, one equivalent of the upper phase (1 ml) is taken and the radioactivity is determined by liquid scintillation measurement.
Substances are customarily tested in four independent batches. The inhibition of the enzymatic activity of the HSL by a test substance is determined by comparison with an uninhibited control reaction. The IC50 value is calculated by means of an inhibition curve using at least 10 concentrations of the test substance. For the analysis of the data, the software package GRAPHIT, Elsevier-BIOSOFT is used.

Take `COc1nn(-c2ccc(-c3ccccc3)cc2)c(=O)o1` [Example 39, 3-(4-Phenylphenyl)-5-methoxy-1,3,4-oxadiazol-2-one]: the IC50 in series [1] stood at 60 µM.
Same read-out and setting: the figure for `COc1nn(-c2cccc(OCc3ccccc3)c2)c(=O)o1` [Example 17, 3-(3-Benzyloxyphenyl)-5-methoxy-1,3,4-oxadiazol-2-one] is 2 µM; for `CCOc1nn(-c2ccc(S(=O)(=O)N3CCOCC3)cc2)c(=O)o1` [Example 8, 3-(4-Morpholinosulfonylphenyl)-5-ethoxy-1,3,4-oxadiazol-2-one] it is 15 µM; for `CCOc1nn(-c2cccc(OCc3ccccc3)c2)c(=O)o1` [Example 18, 3-(3-Benzyloxyphenyl)-5-ethoxy-1,3,4-oxadiazol-2-one] it is less than 1 µM.
Same read-out and setting: the figure for `CC(C)Oc1nn(-c2ccc(OC(F)(F)F)cc2)c(=O)o1` [Example 12, 3-(4-Trifluoromethoxyphenyl)-5-isopropoxy-1,3,4-oxadiazol-2-one] is 10 µM.
On to `CC(C)Oc1nn(-c2cccc(Oc3ccccc3)c2)c(=O)o1` [Example 35, 3-(3-Phenoxyphenyl)-5-isopropoxy-1,3,4-oxadiazol-2-one], for which the melting point was 58 °C. The IC50 in series [1] was determined as 3 µM.
In series [1], `COc1nn(-c2ccc(C3CCCCC3)cc2)c(=O)o1` [Example 37, 3-(4-Cyclohexylphenyl)-5-methoxy-1,3,4-oxadiazol-2-one] came in with a 50% inhibitory concentration (IC50) of 3 µM.
The same measure, in the same setting: as for `CCOc1nn(-c2ccc(OC3CC(C)(C)CC(C)(C)C3)cc2)c(=O)o1` [Example 16, 3-(4-(3,3,5,5-Tetramethylcyclohexyloxy)phenyl)-5-ethoxy-1,3,4-oxadiazol-2-one], the figure is 2 µM; as for `COc1nn(-c2ccc(Oc3ccccc3)cc2)c(=O)o1` [Example 36, 3-(4-Phenoxyphenyl)-5-methoxy-1,3,4-oxadiazol-2-one], 2 µM.
On the same count and under the same terms, as for `COc1nn(-c2ccc(S(=O)(=O)NC3CC(C)CC(C)(C)C3)cc2)c(=O)o1` (stereo not shown) [Example 15, 3-(4-(3,3,5-Trimethylcyclohexylaminosulfonyl)phenyl)-5-methoxy-1,3,4-oxadiazol-2-one], the figure is 2 µM; as for `CCOc1nn(-c2ccc(OC(F)(F)F)cc2)c(=O)o1` [Example 11, 3-(4-Trifluoromethoxyphenyl)-5-ethoxy-1,3,4-oxadiazol-2-one], 10 µM.
Still for that read-out and setting: as for `COc1nn(-c2ccc(OC(F)(F)F)cc2)c(=O)o1` [Example 10, 3-(4-Trifluoromethoxyphenyl)-5-methoxy-1,3,4-oxad iazol-2-one], the figure is 6 µM.
In turn, `CCCCOc1nn(-c2ccc(OC(F)(F)F)cc2)c(=O)o1` [Example 13, 3-(4-Trifluoromethoxyphenyl)-5-butoxy-1,3,4-oxadiazol-2-one] had an IC50 in series [1] of 10 µM.
On the same count and under the same terms, as for `O=c1oc(OCc2ccccc2)nn1-c1ccc(OC(F)(F)F)cc1` [Example 14, 3-(4-Trifluoromethoxyphenyl)-5-benzyloxy-1,3,4-oxad iazol-2-one], the figure is 50 µM; as for `CCOc1nn(-c2cccc(Oc3ccccc3)c2)c(=O)o1` [Example 34, 3-(3-Phenoxyphenyl)-5-ethoxy-1,3,4-oxadiazol-2-one], 3 µM; as for `COc1nn(-c2cccc(OC3CC(C)(C)CC(C)(C)C3)c2)c(=O)o1` [Example 38, 3-(3-(3,3,5,5-Tetramethylcyclohexyloxy)phenyl)-5-methoxy-1,3,4-oxadiazol-2-one], less than 1 µM.
Still for that read-out and setting: the figure for `CCOc1nn(-c2cccc(OC(F)(F)F)c2)c(=O)o1` [Example 19, 3-(3-Trifluoromethoxyphenyl)-5-ethoxy-1,3,4-oxadiazol-2-one] is 5 µM; for `COc1nn(-c2cccc(Oc3ccccc3)c2)c(=O)o1` [Example 33, 3-(3-Phenoxyphenyl)-5-methoxy-1,3,4-oxadiazol-2-one] it is 4 µM.

For the origin of these results see patent US6596742B1, “Substituted 3-phenyl-5-alkoxy-1,3,4-oxadiazol-2-ones, their preparation and their use in medicaments” (Aventis Pharma Deutschland GmbH, priority 1999, dated 2003).
